How the values were obtained:
Format in all cases: in vivo
[1] = system: Amaranthus retroflexus L.; assay: Weeding effect in post-emergence stage, greenhouse pot spray; conditions: 240 g/ha active ingredient, plus water 450 kg/ha; weeds 2-3 leaf stage; 3 weeks after application
Method: (§1) The above growth control rates are fresh weight control rates.
(§2) (1) Experiment on weeding effect in post-emergence stage: monocotyledonous and dicotyledonous weed seeds and major crop seeds (wheat, corn, rice, soybean, cotton, oilseed rape, millet, Sorghum) were placed in plastic pots filled with soil, then covered with 0.5-2 cm of soil, allowed to grow in a good greenhouse environment. After 2 weeks of sowing, the test plants were treated. The tested compounds of the present invention were respectively dissolved in acetone, then added with Tween 80, diluted with a certain amount of water to obtain a solution with a certain concentration, added with 1000 g/ha of emulsified methyl oleate as a synergist, and sprayed with a spray tower onto the plants. After the application, the plants were cultured for 3 weeks in the greenhouse, and then the experimental results of the weeding were listed in Table 2-3.

Digitaria sanguinalis [2] = assay: as above
Method: as §1, §2

Echinochloa crusgalli [3] = assay: as above
Method: as §1, §2

Leptochloa chinensis [4] = assay: as above
Method: as §1, §2

[5] = system: rice (indica rice huanghuazhan); assay: Post-emergence stage crop damage, greenhouse pot spray; conditions: for plant damage level, rice (indica rice huanghuazhan), post-emergence: 240 g/ha active ingredient, plus water 450 kg/ha, 3 weeks after application
Method: as §2

Setaria viridis = assay: Weeding effect in post-emergence stage, greenhouse pot spray
Text: (§3) The activity level criteria for plant damage (i.e., growth control rate) are as follows: • Level 5: growth control rate is above 85%; • Level 4: growth control rate is greater than or equal to 60% and less than 85%; • Level 3: growth control rate is greater than or equal to 40% and less than 60%; • Level 2: growth control rate is greater than or equal to 20% and less than 40%; • Level 1: growth control rate is greater than or equal to 5% and less than 20%; • Level 0: growth control rate is less than 5%.
as §1, §2

japonica rice = assay: Post-emergence stage crop damage, greenhouse pot spray
Text: as §3, §1, §2

Abutilon theophrasti = assay: Weed effect in pre-emergence stage; conditions: direct seeding of rice; dose not given
Method: (§4) Seeds of monocotyledonous and dicotyledonous weeds and main crops (e.g. wheat, corn, rice, soybean, cotton, oilseed rape, millet and Sorghum) were put into a plastic pot loaded with soil and covered with 0.5-2 cm soil. The test compounds of the present invention was dissolved with acetone, then added with tween 80, diluted by a certain amount of water to reach a certain concentration, and sprayed immediately after sowing. The obtained seeds were incubated for 4 weeks in the greenhouse after spraying and the test results were observed. It was observed that the herbicide mostly had excellent effect at the application rate of 250 g a.i./ha, especially to weeds such as Echinochloa crusgalli, Digitaria sanguinalis, Leptochloa chinensis, and Abutilon theophrasti, etc. . . . And many compounds had good selectivity for corn, wheat, rice, soybean, and oilseed rape, etc. . . .

Digitaria sanguinalis [6] = assay: Weed effect in pre-emergence stage; conditions: direct seeding of rice; dose not given
Method: as §4

Echinochloa crusgalli [7] = assay: Weed effect in pre-emergence stage; conditions: direct seeding of rice; dose not given
Method: as §4

Leptochloa chinensis [8] = assay: Weed effect in pre-emergence stage; conditions: direct seeding of rice; dose not given
Method: as §4

rice = assay: Pre-emergence stage crop selectivity; conditions: dose not given
Method: as §4

[9] = 240 g/ha active ingredient, plus water 450 kg/ha, weeds 2-3 leaf stage, 3 weeks after application

## CSc1nnc2c(Cl)c(C(=O)C3C(=O)CCCC3=O)ccn12 [Compound 118]
[1]
  weeding effect in post-emergence stage, Amaranthus retroflexus L. (activity level): 5 (Level 5: growth control rate is above 85%)
Digitaria sanguinalis [2]; [9]
  weeding effect in post-emergence stage, Digitaria sanguinalis (activity level): 5 (Level 5: growth control rate is above 85%)
Echinochloa crusgalli [3]; [9]
  weeding effect in post-emergence stage, Echinochloa crusgalli (activity level): 5 (Level 5: growth control rate is above 85%)
Leptochloa chinensis [4]; [9]
  weeding effect in post-emergence stage, Leptochloa chinensis (activity level): 5 (Level 5: growth control rate is above 85%)
[5]
  plant damage level, rice (indica rice huanghuazhan), post-emergence: 0 (Level 0: growth control rate is less than 5%)

## O=C1CCCC(=O)C1C(=O)c1ccn2c(C3CC3)nnc2c1Cl [Compound 2]
[1]
  weeding effect in post-emergence stage, Amaranthus retroflexus L. (activity level): 5 (Level 5: growth control rate is above 85%)
Digitaria sanguinalis [2]; [9]
  weeding effect in post-emergence stage, Digitaria sanguinalis (activity level): 5 (Level 5: growth control rate is above 85%)
Digitaria sanguinalis [2]; Dose 30 g/ha
  weeding effect in post-emergence stage, Digitaria sanguinalis (activity level): 5 (Level 5: growth control rate is above 85%)
Digitaria sanguinalis [2]; Dose 60 g/ha
  weeding effect in post-emergence stage, Digitaria sanguinalis (activity level): 5 (Level 5: growth control rate is above 85%)
Digitaria sanguinalis [2]; Dose 120 g/ha
  weeding effect in post-emergence stage, Digitaria sanguinalis (activity level): 5 (Level 5: growth control rate is above 85%)
Echinochloa crusgalli [3]; [9]
  weeding effect in post-emergence stage, Echinochloa crusgalli (activity level): 5 (Level 5: growth control rate is above 85%)
Echinochloa crusgalli [3]; Dose 30 g/ha
  weeding effect in post-emergence stage, Echinochloa crusgalli (activity level): 5 (Level 5: growth control rate is above 85%)
Echinochloa crusgalli [3]; Dose 60 g/ha
  weeding effect in post-emergence stage, Echinochloa crusgalli (activity level): 5 (Level 5: growth control rate is above 85%)
Echinochloa crusgalli [3]; Dose 120 g/ha
  weeding effect in post-emergence stage, Echinochloa crusgalli (activity level): 5 (Level 5: growth control rate is above 85%)
Leptochloa chinensis [4]; [9]
  weeding effect in post-emergence stage, Leptochloa chinensis (activity level): 5 (Level 5: growth control rate is above 85%)
Leptochloa chinensis [4]; Dose 30 g/ha
  weeding effect in post-emergence stage, Leptochloa chinensis (activity level): 5 (Level 5: growth control rate is above 85%)
Leptochloa chinensis [4]; Dose 60 g/ha
  weeding effect in post-emergence stage, Leptochloa chinensis (activity level): 5 (Level 5: growth control rate is above 85%)
Leptochloa chinensis [4]; Dose 120 g/ha
  weeding effect in post-emergence stage, Leptochloa chinensis (activity level): 5 (Level 5: growth control rate is above 85%)
[5]
  plant damage level, rice (indica rice huanghuazhan), post-emergence: 0 (Level 0: growth control rate is less than 5%)
[5]; Dose 30 g/ha
  plant damage level, indica rice, post-emergence: 0 (Level 0: growth control rate is less than 5%)
[5]; Dose 60 g/ha
  plant damage level, indica rice, post-emergence: 0 (Level 0: growth control rate is less than 5%)
[5]; Dose 120 g/ha
  plant damage level, indica rice, post-emergence: 0 (Level 0: growth control rate is less than 5%)
Setaria viridis; Dose 30 g/ha
  weeding effect in post-emergence stage, Setaria viridis (activity level): 5 (Level 5: growth control rate is above 85%)
Setaria viridis; Dose 60 g/ha
  weeding effect in post-emergence stage, Setaria viridis (activity level): 5 (Level 5: growth control rate is above 85%)
Setaria viridis; Dose 120 g/ha
  weeding effect in post-emergence stage, Setaria viridis (activity level): 5 (Level 5: growth control rate is above 85%)
Japonica rice; Dose 30 g/ha
  plant damage level, japonica rice, post-emergence: 0 (Level 0: growth control rate is less than 5%)
Japonica rice; Dose 60 g/ha
  plant damage level, japonica rice, post-emergence: 0 (Level 0: growth control rate is less than 5%)
Japonica rice; Dose 120 g/ha
  plant damage level, japonica rice, post-emergence: 0 (Level 0: growth control rate is less than 5%)
Abutilon theophrasti
  sealing effects on Abutilon theophrasti, pre-emergence: excellent sealing effects
Digitaria sanguinalis [6]
  sealing effects on Digitaria sanguinalis, pre-emergence: excellent sealing effects
Echinochloa crusgalli [7]
  sealing effects on Echinochloa crusgalli, pre-emergence: excellent sealing effects
Leptochloa chinensis [8]
  sealing effects on Leptochloa chinensis, pre-emergence: excellent sealing effects
rice
  safety for direct seeding of rice, pre-emergence: safe and efficient

## COc1nnc2c(Cl)c(C(=O)C3C(=O)CCCC3=O)ccn12 [Compound 114]
[1]
  weeding effect in post-emergence stage, Amaranthus retroflexus L. (activity level): 5 (Level 5: growth control rate is above 85%)
Digitaria sanguinalis [2]; [9]
  weeding effect in post-emergence stage, Digitaria sanguinalis (activity level): 5 (Level 5: growth control rate is above 85%)
Echinochloa crusgalli [3]; [9]
  weeding effect in post-emergence stage, Echinochloa crusgalli (activity level): 5 (Level 5: growth control rate is above 85%)
Leptochloa chinensis [4]; [9]
  weeding effect in post-emergence stage, Leptochloa chinensis (activity level): 5 (Level 5: growth control rate is above 85%)
[5]
  plant damage level, rice (indica rice huanghuazhan), post-emergence: 0 (Level 0: growth control rate is less than 5%)

## O=C(c1ccn2c(C3CC3)nnc2c1Cl)C1C(=O)C2CCC(C2)C1=O (centres unmarked) [Compound 274]
[1]
  weeding effect in post-emergence stage, Amaranthus retroflexus L. (activity level): 5 (Level 5: growth control rate is above 85%)
Digitaria sanguinalis [2]; [9]
  weeding effect in post-emergence stage, Digitaria sanguinalis (activity level): 5 (Level 5: growth control rate is above 85%)
Digitaria sanguinalis [2]; Dose 30 g/ha
  weeding effect in post-emergence stage, Digitaria sanguinalis (activity level): 5 (Level 5: growth control rate is above 85%)
Digitaria sanguinalis [2]; Dose 60 g/ha
  weeding effect in post-emergence stage, Digitaria sanguinalis (activity level): 5 (Level 5: growth control rate is above 85%)
Digitaria sanguinalis [2]; Dose 120 g/ha
  weeding effect in post-emergence stage, Digitaria sanguinalis (activity level): 5 (Level 5: growth control rate is above 85%)
Echinochloa crusgalli [3]; [9]
  weeding effect in post-emergence stage, Echinochloa crusgalli (activity level): 5 (Level 5: growth control rate is above 85%)
Echinochloa crusgalli [3]; Dose 30 g/ha
  weeding effect in post-emergence stage, Echinochloa crusgalli (activity level): 5 (Level 5: growth control rate is above 85%)
Echinochloa crusgalli [3]; Dose 60 g/ha
  weeding effect in post-emergence stage, Echinochloa crusgalli (activity level): 5 (Level 5: growth control rate is above 85%)
Echinochloa crusgalli [3]; Dose 120 g/ha
  weeding effect in post-emergence stage, Echinochloa crusgalli (activity level): 5 (Level 5: growth control rate is above 85%)
Leptochloa chinensis [4]; [9]
  weeding effect in post-emergence stage, Leptochloa chinensis (activity level): 5 (Level 5: growth control rate is above 85%)
Leptochloa chinensis [4]; Dose 30 g/ha
  weeding effect in post-emergence stage, Leptochloa chinensis (activity level): 5 (Level 5: growth control rate is above 85%)
Leptochloa chinensis [4]; Dose 60 g/ha
  weeding effect in post-emergence stage, Leptochloa chinensis (activity level): 5 (Level 5: growth control rate is above 85%)
Leptochloa chinensis [4]; Dose 120 g/ha
  weeding effect in post-emergence stage, Leptochloa chinensis (activity level): 5 (Level 5: growth control rate is above 85%)
[5]
  plant damage level, rice (indica rice huanghuazhan), post-emergence: 0 (Level 0: growth control rate is less than 5%)
[5]; Dose 30 g/ha
  plant damage level, indica rice, post-emergence: 0 (Level 0: growth control rate is less than 5%)
[5]; Dose 60 g/ha
  plant damage level, indica rice, post-emergence: 0 (Level 0: growth control rate is less than 5%)
[5]; Dose 120 g/ha
  plant damage level, indica rice, post-emergence: 0 (Level 0: growth control rate is less than 5%)
Setaria viridis; Dose 30 g/ha
  weeding effect in post-emergence stage, Setaria viridis (activity level): 5 (Level 5: growth control rate is above 85%)
Setaria viridis; Dose 60 g/ha
  weeding effect in post-emergence stage, Setaria viridis (activity level): 5 (Level 5: growth control rate is above 85%)
Setaria viridis; Dose 120 g/ha
  weeding effect in post-emergence stage, Setaria viridis (activity level): 5 (Level 5: growth control rate is above 85%)
Japonica rice; Dose 30 g/ha
  plant damage level, japonica rice, post-emergence: 0 (Level 0: growth control rate is less than 5%)
Japonica rice; Dose 60 g/ha
  plant damage level, japonica rice, post-emergence: 0 (Level 0: growth control rate is less than 5%)
Japonica rice; Dose 120 g/ha
  plant damage level, japonica rice, post-emergence: 0 (Level 0: growth control rate is less than 5%)
Abutilon theophrasti
  sealing effects on Abutilon theophrasti, pre-emergence: excellent sealing effects
Digitaria sanguinalis [6]
  sealing effects on Digitaria sanguinalis, pre-emergence: excellent sealing effects
Echinochloa crusgalli [7]
  sealing effects on Echinochloa crusgalli, pre-emergence: excellent sealing effects
Leptochloa chinensis [8]
  sealing effects on Leptochloa chinensis, pre-emergence: excellent sealing effects
rice
  safety for direct seeding of rice, pre-emergence: safe and efficient

## O=C1CCCC(=O)C1C(=O)c1ccn2c(C3CC3(F)F)nnc2c1Cl (centres unmarked) [Compound 87]
[1]
  weeding effect in post-emergence stage, Amaranthus retroflexus L. (activity level): 5 (Level 5: growth control rate is above 85%)
Digitaria sanguinalis [2]; [9]
  weeding effect in post-emergence stage, Digitaria sanguinalis (activity level): 4 (Level 4: growth control rate is greater than or equal to 60% and less than 85%)
Echinochloa crusgalli [3]; [9]
  weeding effect in post-emergence stage, Echinochloa crusgalli (activity level): 4 (Level 4: growth control rate is greater than or equal to 60% and less than 85%)
Leptochloa chinensis [4]; [9]
  weeding effect in post-emergence stage, Leptochloa chinensis (activity level): 5 (Level 5: growth control rate is above 85%)
[5]
  plant damage level, rice (indica rice huanghuazhan), post-emergence: 0 (Level 0: growth control rate is less than 5%)

— patent publication US12240843B2, “Substituted 1,2,4-triazolo[4,3-a]pyridine derivative and preparation method, herbicidal composition and application thereof” (Qingdao Kingagroot Chemical Compound Co., Ltd., priority 2019, dated 2025)
